Test results published in patent US8592403B2, “Diazepine and diazocane compounds as MC4 agonists” (Pfizer Limited, priority 2008, dated 2013).

Key:
[1] = target: T1, CYP3A4 (Homo sapiens, UniProt P08684); test: High density DDI 3 μM cocktail screen in human liver microsomes, midazolam probe; assay type: in vitro ADME; settings: human, liver microsomes, probe midazolam, read-out: % inhibition 3A4 @ 3 μM
T1 construct: utilizes human liver microsomes together with isoform-specific clinical drug probes; from tissue; host or cells: human liver microsomes
T1 sequence (P08684 whole entry, canonical isoform): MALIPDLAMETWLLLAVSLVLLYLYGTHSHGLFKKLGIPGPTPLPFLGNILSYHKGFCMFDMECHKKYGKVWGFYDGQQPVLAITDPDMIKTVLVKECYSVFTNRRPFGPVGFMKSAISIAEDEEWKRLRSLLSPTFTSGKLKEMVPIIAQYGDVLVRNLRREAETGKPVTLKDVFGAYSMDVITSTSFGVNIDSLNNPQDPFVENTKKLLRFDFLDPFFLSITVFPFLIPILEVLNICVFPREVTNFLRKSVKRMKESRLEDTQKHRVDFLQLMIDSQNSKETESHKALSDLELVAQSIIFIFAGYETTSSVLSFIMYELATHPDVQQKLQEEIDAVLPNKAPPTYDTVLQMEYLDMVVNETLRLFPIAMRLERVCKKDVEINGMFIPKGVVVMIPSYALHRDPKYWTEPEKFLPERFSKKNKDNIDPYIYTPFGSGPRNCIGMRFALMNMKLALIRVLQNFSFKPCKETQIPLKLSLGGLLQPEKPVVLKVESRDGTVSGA
Outline: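 Pooled human liver microsomes incubated with isoform-specific clinical probe substrates as a cocktail (midazolam for CYP3A4), with or without test compound at 3 μM. Metabolite formation followed over time by LC-MS/MS. Inhibition expressed as a single-point percentage.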

[2] = target: MC4 receptor (Homo sapiens, UniProt P32245); test: MC4 EC50 functional potency (protocol E of US2005/0176772 / WO 2005/077935); assay type: cell-based
MC4 receptor, sequence (P32245 whole entry): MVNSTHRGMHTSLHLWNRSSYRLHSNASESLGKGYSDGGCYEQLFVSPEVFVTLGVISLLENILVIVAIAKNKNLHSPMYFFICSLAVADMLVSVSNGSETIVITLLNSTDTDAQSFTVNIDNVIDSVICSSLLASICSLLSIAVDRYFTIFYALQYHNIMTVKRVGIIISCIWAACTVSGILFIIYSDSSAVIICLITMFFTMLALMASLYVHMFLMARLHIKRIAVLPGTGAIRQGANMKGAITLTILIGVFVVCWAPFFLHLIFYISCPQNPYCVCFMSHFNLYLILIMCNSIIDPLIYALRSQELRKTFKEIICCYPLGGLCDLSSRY
Experimental: The compounds of formula (I) of the present invention have utility as MCR4 agonists in the treatment of various disease states.
MC5 and MC4 EC50 activity was determined as described by assay protocols D and E, respectively, in US2005/0176772 (pages 28-30).

[3] = target: T2, human MC3 receptors (Homo sapiens, UniProt P41968); test: In vitro agonist potency (EC50) at melanocortin receptor type 3, cAMP in recombinant cell line; assay type: cell-based
T2 construct: stably transfected with full length cDNA encoding human MC1 or MC3 receptors; expressed in transfected cells
T2 sequence (P41968 whole entry): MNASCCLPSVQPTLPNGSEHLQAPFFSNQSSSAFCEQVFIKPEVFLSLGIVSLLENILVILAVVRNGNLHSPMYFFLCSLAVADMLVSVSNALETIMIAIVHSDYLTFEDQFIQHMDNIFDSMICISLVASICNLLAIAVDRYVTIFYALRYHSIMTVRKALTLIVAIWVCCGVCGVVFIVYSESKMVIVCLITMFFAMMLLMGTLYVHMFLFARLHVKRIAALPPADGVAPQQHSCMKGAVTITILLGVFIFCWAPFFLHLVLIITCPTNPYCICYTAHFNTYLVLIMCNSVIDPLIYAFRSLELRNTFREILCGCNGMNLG
Experimental: Measurement of In Vitro Agonist Potency (EC50) of Compounds Against Melanocortin Receptors Type 1 and 3 (MC1 and MC3).
Activation of melanocortin (MC) receptors by agonists results in activation of intracellular adenylate cyclase enzymes that synthesise the second messenger signalling molecule, adenosine 3′,5′-cyclic monophosphate (cAMP). Changes in cAMP levels following treatment of recombinant MC1 and MC3 cell lines with test compound were measured and an MC1 and MC3 potency estimate (EC50) calculated as follows: […]
Human embryonic kidney (HEK) or Chinese hamster ovary cell lines stably transfected with full length cDNA encoding human MC1 or MC3 receptors, respectively, were established using standard molecular biology methods. Test compounds were dissolved in dimethyl sulfoxide (DMSO) at 4 mM. 11 point half log unit increment dilution series of test compound, typically starting at 50 uM were prepared in a buffer comprised of phosphate buffered saline (PBS), 2.5% DMSO and 0.05% pluronic F-127 surfactant. Freshly cultured cells at 80-90% confluence were harvested and re-suspended in Dulbecco's Modified Eagle's Medium (DMEM). Cells (10,000 for MC3, 20,000 for MC1) were added to the test compound dilution series in a 384 well assay plate and incubated for 1 hour at 37° C. The relative cAMP concentration in each well was then measured using a β-galactosidase enzyme fragment complementation method purchased in kit form as the Discoverx cAMP II kit from GE Healthcare/Amersham Biosciences UK. In the case of MC1,3-Isobutyl-1-methylxanthine (IBMX) at a concentration of 750 μM was included in DMEM as the cells were re-suspended for assay. […] Sigmoidal curves were fitted to plots of log10 inhibitor concentration vs percent effect using a custom made software application called SIGHTS and EC50 estimates determined by the software as the concentration of test compound giving an effect half way between the bottom and top asymptotes of the sigmoidal dose response curve. Each experiment included an EC50 determination for alpha melanocyte stimulating hormone, which was used as a standard to track assay consistency and allow fair comparison between EC50 estimates obtained in different experiments.

[4] = target: T3, MC3 receptor (MC3R) (Homo sapiens, UniProt P41968); test: Nle4, D-Phe7-α-MSH inhibition at the MC3 receptor (competition binding, SPA, CHO-CRE MC3R membranes)
T3 construct: expressed in transfected cells; host or cells: CHO-CRE MC3R cells (membranes)
T3 sequence (P41968 whole entry): as above
Outline: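 Competition binding by SPA used CHO-CRE MC3R membranes on WGA beads with 0.06 nM [125I]Nle4,D-Phe7-α-MSH and 11 half-log competitor concentrations. Buffer was 25 mM HEPES, MgCl2, CaCl2, 1% Pluronic F68, pH7, incubated 12 h at room temperature. Non-specific binding was defined with 100 nM SHU9119, and Ki values were derived.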

inhibition at 3 µM [1] | EC50 [2] | EC50 [3] | Ki [4] | SMILES
88% | 12.2 nM | 544 nM | 981 nM | CNC(=O)N1CCN(C(=O)[C@@H]2CN(c3cccnn3)C[C@H]2c2ccc(F)cc2F)CCCC1c1ccccc1 (mixture of isomers) [Example 73]
33.5% | 50 nM | 604 nM | 960 nM | CS(=O)(=O)N1CCN(C(=O)[C@@H]2CN(c3ccc(C#N)nn3)C[C@H]2c2ccc(F)cc2F)CCCC1c1ccc(Cl)cc1 (mixture of isomers) [Example 76]
51% | 17.1 nM | 1820 nM | 1110 nM | CS(=O)(=O)N1CCN(C(=O)[C@@H]2CN(c3ccc(=O)[nH]n3)C[C@H]2c2ccc(F)cc2F)CCCC1c1ccc(Cl)cc1 (mixture of isomers) [Example 79]
83% | 7.12 nM | 114 nM | 715 nM | CCCC(=O)N1CCN(C(=O)[C@@H]2CN(c3cccnn3)C[C@H]2c2ccc(F)cc2F)CCCC1c1ccccc1 (mixture of isomers) [Example 101]
53.8% | 9.79 nM | 332 nM | 1540 nM | CC(=O)N1CCN(C(=O)[C@@H]2CN(c3cccnn3)C[C@H]2c2ccc(F)cc2F)CCCC1c1ccccc1 (mixture of isomers) [Example 103]
44.5% | 34.9 nM | 8360 nM | 1150 nM | COc1ccc([C@@H]2CN(c3ccc(=O)n(C)n3)C[C@H]2C(=O)N2CCCC(c3ccc(Cl)cc3)N(S(C)(=O)=O)CC2)c(F)c1 (single isomer, unassigned) [Example 117]
29.5% | 4.3 nM | 728 nM | 308 nM | COc1ccc([C@@H]2CN(c3ccc(=O)[nH]n3)C[C@H]2C(=O)N2CCC[C@@H](c3ccc(Cl)cc3)N(C(C)=O)CC2)c(F)c1 [Example 68, 6-[(3S,4R)-3-{[4-acetyl-5S-(4-chlorophenyl)-1,4-diazocan-1-yl]carbonyl}-4-(2-fluoro-4-methoxyphenyl)pyrrolidin-1-yl]pyridazin-3(2H)-one]
36% | 20.6 nM | 4040 nM | 5880 nM | COc1ccc([C@@H]2CN(C(C)(C)C)C[C@H]2C(=O)N2CCC[C@@H](c3ccc(Cl)cc3)N(C(C)=O)CC2)c(F)c1 [Example 70]
20.4% | 26.1 nM | 88.6 nM | 141 nM | CC(=O)N1CCN(C(=O)[C@@H]2CN(c3ccc(C#N)nn3)C[C@H]2c2ccc(Cl)cn2)CCC[C@H]1c1ccc(Cl)cc1 [Example 72]
49% | 40.3 nM | 3320 nM | 3220 nM | CS(=O)(=O)N1CCN(C(=O)C2CN(c3ccc(=O)[nH]n3)CC2c2ccc(F)cc2F)CCCC1c1ccc(F)cc1 (centres unmarked) [Example 78]
53.8% | 1.83 nM | 456 nM | 230 nM | COC(=O)N1CCN(C(=O)[C@@H]2CN(c3ccc(=O)[nH]n3)C[C@H]2c2ccc(OC)cc2F)CCC[C@@H]1c1ccc(Cl)cc1 [Example 90, methyl 8R-(4-chlorophenyl)-4-{[(3S,4R)-4-(2-fluoro-4-methoxyphenyl)-1-(6-oxo-1,6-dihydropyridazin-3-yl)pyrrolidin-3-yl]carbonyl}-1,4-diazocane-1-carboxylate]
33% | 20.2 nM | 7380 nM | 4300 nM | COC(=O)N1CCN(C(=O)[C@@H]2CN(C(C)(C)C)C[C@H]2c2ccc(OC)cc2F)CCCC1c1ccc(Cl)cc1 (some centres unmarked) [Example 91]
48% | 1.83 nM | 8200 nM | 178 nM | COC(=O)N1CCN(C(=O)[C@@H]2CN(c3ccc(=O)n(C)n3)C[C@H]2c2ccc(OC)cc2F)CCC[C@H]1c1ccc(Cl)cc1 [Example 118]
54.5% | 8.53 nM | 11200 nM | 900 nM | COC(=O)N1CCN(C(=O)[C@@H]2CN(c3ccc(=O)n(C)n3)C[C@H]2c2ccc(OC)cc2F)CCC[C@@H]1c1ccc(Cl)cc1 [Example 119, methyl 8R-(4-chlorophenyl)-4-{[(3S,4R)-4-(2-fluoro-4-methoxyphenyl)-1-(1-methyl-6-oxo-1,6-dihydropyridazin-3-yl)pyrrolidin-3-yl]carbonyl}-1,4-diazocane-1-carboxylate]

The remaining lines, values behind:

SMILES | inhibition at 3 µM [1] | EC50 [2] | EC50 [3] | Ki [4]
CC(=O)N1CCN(C(=O)[C@@H]2CN(c3ccc4nncn4n3)C[C@H]2c2ccc(Cl)cn2)CCC[C@H]1c1ccc(Cl)cc1 [Example 6, 6-[(3S,4S)-3-{[4-acetyl-5S-(4-chlorophenyl)-1,4-diazocan-1-yl]carbonyl}-4-(5-chloropyridin-2-yl)pyrrolidin-1-yl][1,2,4]triazolo[4,3-b]pyridazine] | 54.2% | 1.12 nM | 300 nM | 89.5 nM
CCC(=O)N1CCN(C(=O)[C@@H]2CN(C(C)(C)C)C[C@H]2c2ccc(F)cc2F)CCC[C@H]1c1ccc(Cl)cc1 [Example 10] | 37.1% | 17.3 nM | 4190 nM | 6590 nM
CC(C)C(=O)N1CCN(C(=O)[C@@H]2CN(C(C)(C)C)C[C@H]2c2ccc(F)cc2F)CCC[C@H]1c1ccc(Cl)cc1 [Example 11] | 53.5% | 6.73 nM | 3390 nM | 4090 nM
CC(C)(C)N1C[C@@H](C(=O)N2CCC[C@@H](c3ccc(Cl)cc3)N(C(=O)C3CCC3)CC2)[C@H](c2ccc(F)cc2F)C1 [Example 14] | 56.1% | 13.4 nM | 8590 nM | 4060 nM
CC(C)(C)C(=O)N1CCN(C(=O)[C@@H]2CN(C(C)(C)C)C[C@H]2c2ccc(F)cc2F)CCC[C@H]1c1ccc(Cl)cc1 [Example 15] | 64.4% | 10.6 nM | 3180 nM | 3380 nM
CC(C)C(=O)N1CCN(C(=O)[C@@H]2CN(C(C)(C)C)C[C@H]2c2ccc(Cl)cn2)CCC[C@H]1c1ccc(Cl)cc1 [Example 20, 1-{[(3S,4S)-1-tert-butyl-4-(5-chloropyridin-2-yl)pyrrolidin-3-yl]carbonyl}-5S-(4-chlorophenyl)-4-isobutyryl-1,4-diazocane] | 50.2% | 5.46 nM | 1660 nM | 386 nM
COC(=O)N1CCN(C(=O)[C@@H]2CN(c3ccc(=O)n(C)n3)C[C@H]2c2ccc(F)cc2F)CCC[C@@H]1c1ccc(Cl)cc1 [Example 56] | 54.2% | 2.99 nM | 1220 nM | 187 nM
COC(=O)N1CCN(C(=O)[C@@H]2CN(c3ccc(=O)n(C)n3)C[C@H]2c2ccc(F)cc2F)CCC[C@H]1c1ccc(Cl)cc1 [Example 66, methyl (8S-4-chlorophenyl)-4-{[(3S,4R)-4-(2,4-difluorophenyl)-1-(1-methyl-6-oxo-1,6-dihydropyridazin-3-yl)pyrrolidin-3-yl]carbonyl}-1,4-diazocane-1-carboxylate] | 54.2% | 2.99 nM | 1220 nM | 187 nM
COc1ccc([C@@H]2CN(c3ccc(C#N)nn3)C[C@H]2C(=O)N2CCC[C@@H](c3ccc(Cl)cc3)N(C(C)=O)CC2)c(F)c1 [Example 67] | 29.5% | 7.73 nM | 177 nM | 162 nM
